Experimental data: ChEMBL document CHEMBL3991601, “The target landscape of clinical kinase drugs” (Science, 2017)
The source made the active and inactive calls.

Experiments:
[1] = molecular target: Dual specificity protein kinase CLK3 (Homo sapiens, UniProt P49761); format: subcellular, K-562, COLO 205, SK-N-BE(2) and MV-4-11, Cell lysate; details: read-out: Kd apparent
[2] = molecular target: Uncharacterized aarF domain-containing protein kinase 5 (Homo sapiens, UniProt Q3MIX3)
[3] = molecular target: Cell division cycle 7-related protein kinase (Homo sapiens, UniProt O00311)
UMP-CMP kinase = molecular target: T1, UMP-CMP kinase (Homo sapiens, UniProt P30085)
T1 sequence (P30085 whole entry): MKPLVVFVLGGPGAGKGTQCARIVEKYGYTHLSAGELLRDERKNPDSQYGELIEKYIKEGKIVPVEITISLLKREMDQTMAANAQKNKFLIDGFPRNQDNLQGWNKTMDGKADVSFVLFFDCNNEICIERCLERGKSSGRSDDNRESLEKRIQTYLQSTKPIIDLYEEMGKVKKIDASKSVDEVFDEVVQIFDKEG

Focal adhesion kinase 1 = Focal adhesion kinase 1 (Homo sapiens, UniProt Q05397)
[4] = molecular target: T2, Thyroid hormone receptor-associated protein 3 (Homo sapiens, UniProt Q9Y2W1)
T2 sequence (Q9Y2W1 whole entry): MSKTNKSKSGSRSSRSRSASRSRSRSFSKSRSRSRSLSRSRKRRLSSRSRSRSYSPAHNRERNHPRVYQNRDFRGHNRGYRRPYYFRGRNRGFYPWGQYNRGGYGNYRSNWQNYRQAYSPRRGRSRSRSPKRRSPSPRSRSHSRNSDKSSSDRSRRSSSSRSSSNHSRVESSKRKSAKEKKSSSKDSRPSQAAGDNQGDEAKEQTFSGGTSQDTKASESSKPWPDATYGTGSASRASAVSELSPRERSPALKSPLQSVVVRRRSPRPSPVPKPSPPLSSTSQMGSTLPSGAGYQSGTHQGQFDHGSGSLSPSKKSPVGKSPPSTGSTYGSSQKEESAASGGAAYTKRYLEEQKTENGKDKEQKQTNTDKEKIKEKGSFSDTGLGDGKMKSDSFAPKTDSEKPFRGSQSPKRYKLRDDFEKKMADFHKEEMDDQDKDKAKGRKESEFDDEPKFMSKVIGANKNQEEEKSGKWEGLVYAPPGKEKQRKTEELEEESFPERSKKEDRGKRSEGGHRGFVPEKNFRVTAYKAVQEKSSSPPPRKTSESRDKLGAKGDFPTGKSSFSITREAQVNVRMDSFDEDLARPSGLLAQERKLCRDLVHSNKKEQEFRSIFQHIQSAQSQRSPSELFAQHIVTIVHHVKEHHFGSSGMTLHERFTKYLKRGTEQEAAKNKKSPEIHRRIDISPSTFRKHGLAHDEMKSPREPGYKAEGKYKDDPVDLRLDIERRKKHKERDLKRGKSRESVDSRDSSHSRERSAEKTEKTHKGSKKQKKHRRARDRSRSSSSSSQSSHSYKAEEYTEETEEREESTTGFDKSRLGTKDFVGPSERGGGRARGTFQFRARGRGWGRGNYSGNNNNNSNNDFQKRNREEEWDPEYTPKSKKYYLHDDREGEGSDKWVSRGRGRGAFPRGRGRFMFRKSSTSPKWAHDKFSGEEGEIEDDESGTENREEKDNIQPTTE

[5] = molecular target: Serine/threonine-protein kinase N3 (Homo sapiens, UniProt Q6P5Z2)
[6] = molecular target: Dual specificity testis-specific protein kinase 1 (Homo sapiens, UniProt Q15569)
[7] = molecular target: T3, Protein kinase C zeta type (Homo sapiens, UniProt Q05513)
T3 sequence (Q05513 whole entry): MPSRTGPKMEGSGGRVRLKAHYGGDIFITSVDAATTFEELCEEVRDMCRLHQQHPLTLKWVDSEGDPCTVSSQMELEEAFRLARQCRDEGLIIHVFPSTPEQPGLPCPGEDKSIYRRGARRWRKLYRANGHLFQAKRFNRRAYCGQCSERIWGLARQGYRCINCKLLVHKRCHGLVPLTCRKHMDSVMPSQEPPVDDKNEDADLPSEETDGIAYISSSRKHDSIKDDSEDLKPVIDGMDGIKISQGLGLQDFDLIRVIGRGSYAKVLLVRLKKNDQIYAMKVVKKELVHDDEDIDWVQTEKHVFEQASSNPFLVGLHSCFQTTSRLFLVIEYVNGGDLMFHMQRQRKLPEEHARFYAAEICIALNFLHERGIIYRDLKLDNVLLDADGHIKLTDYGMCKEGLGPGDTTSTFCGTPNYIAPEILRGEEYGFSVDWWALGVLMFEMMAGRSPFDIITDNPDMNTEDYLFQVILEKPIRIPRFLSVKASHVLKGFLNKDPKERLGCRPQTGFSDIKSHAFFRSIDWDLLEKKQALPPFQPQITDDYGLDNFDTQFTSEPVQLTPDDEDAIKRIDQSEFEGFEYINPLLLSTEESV

[8] = molecular target: T4, Dual specificity protein kinase TTK (Homo sapiens, UniProt P33981)
T4 sequence (P33981 whole entry): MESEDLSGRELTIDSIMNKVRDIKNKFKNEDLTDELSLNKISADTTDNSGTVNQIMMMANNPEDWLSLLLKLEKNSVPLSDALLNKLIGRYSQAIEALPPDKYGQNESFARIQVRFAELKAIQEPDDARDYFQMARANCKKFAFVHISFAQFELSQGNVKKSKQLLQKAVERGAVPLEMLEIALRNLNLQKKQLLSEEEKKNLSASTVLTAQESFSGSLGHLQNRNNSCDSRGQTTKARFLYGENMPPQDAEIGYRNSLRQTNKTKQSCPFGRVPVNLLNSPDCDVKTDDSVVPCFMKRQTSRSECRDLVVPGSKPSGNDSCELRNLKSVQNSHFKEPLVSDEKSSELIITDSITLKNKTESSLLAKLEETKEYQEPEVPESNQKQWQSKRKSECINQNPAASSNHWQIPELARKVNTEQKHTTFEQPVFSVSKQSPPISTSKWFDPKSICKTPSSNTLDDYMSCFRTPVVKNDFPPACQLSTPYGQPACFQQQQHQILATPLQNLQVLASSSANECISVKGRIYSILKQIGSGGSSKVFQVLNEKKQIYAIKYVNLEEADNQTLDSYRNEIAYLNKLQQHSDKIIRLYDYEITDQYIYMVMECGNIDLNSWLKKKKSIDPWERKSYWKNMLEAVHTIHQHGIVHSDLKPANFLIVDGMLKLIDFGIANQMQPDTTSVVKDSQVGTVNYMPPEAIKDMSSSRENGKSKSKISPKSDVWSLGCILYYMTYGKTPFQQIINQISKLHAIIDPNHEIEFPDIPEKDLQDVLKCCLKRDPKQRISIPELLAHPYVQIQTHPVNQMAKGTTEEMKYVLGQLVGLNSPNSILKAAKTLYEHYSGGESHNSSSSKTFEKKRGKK

Measured: Kd
Also: in the data inactive means no Kd found up to 30 µM.

Chain of Focal adhesion kinase 1 (Q05397 whole entry): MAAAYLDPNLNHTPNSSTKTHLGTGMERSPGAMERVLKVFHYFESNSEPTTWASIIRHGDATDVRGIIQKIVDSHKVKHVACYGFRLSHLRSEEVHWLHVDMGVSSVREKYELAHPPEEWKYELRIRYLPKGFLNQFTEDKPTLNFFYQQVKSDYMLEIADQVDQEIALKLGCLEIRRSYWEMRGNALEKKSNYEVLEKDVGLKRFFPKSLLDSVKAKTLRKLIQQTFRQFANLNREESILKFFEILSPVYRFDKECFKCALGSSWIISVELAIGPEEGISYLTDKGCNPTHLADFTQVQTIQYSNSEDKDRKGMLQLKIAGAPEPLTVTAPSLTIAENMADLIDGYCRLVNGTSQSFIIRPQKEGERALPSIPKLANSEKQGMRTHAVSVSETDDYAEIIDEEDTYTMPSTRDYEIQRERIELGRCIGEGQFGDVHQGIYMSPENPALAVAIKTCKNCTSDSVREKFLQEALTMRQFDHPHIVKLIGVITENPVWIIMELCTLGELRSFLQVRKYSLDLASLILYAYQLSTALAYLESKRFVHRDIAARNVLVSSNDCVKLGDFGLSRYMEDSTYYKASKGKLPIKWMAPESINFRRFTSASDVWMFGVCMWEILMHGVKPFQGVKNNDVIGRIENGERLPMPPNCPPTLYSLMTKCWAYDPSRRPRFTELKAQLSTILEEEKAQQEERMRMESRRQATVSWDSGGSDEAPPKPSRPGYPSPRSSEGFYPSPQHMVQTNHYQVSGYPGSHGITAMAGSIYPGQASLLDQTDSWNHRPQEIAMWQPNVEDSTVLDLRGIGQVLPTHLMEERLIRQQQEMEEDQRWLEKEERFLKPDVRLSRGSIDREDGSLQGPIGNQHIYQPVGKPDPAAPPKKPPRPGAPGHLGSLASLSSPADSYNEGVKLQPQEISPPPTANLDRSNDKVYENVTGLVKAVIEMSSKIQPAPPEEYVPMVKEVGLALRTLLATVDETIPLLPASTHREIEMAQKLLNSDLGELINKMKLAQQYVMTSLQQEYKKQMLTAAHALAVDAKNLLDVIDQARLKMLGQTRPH
Chain of Dual specificity testis-specific protein kinase 1 (Q15569 whole entry): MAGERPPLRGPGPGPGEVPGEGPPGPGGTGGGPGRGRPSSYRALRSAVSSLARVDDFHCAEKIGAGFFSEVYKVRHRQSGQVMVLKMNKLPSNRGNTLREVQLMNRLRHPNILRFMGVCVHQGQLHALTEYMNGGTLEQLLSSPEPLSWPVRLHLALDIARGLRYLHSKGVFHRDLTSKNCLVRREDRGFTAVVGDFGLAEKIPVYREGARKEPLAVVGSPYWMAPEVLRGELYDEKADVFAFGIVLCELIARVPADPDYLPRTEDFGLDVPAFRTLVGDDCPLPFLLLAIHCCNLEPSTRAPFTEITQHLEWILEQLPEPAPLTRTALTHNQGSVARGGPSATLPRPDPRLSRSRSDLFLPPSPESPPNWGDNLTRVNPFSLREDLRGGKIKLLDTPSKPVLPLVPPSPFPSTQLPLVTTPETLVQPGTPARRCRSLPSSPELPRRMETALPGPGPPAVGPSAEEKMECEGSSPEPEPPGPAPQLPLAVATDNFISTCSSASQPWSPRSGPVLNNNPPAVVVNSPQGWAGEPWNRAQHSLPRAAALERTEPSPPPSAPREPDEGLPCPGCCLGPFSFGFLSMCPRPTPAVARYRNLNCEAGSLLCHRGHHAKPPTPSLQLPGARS
Chain of Cell division cycle 7-related protein kinase (O00311 whole entry): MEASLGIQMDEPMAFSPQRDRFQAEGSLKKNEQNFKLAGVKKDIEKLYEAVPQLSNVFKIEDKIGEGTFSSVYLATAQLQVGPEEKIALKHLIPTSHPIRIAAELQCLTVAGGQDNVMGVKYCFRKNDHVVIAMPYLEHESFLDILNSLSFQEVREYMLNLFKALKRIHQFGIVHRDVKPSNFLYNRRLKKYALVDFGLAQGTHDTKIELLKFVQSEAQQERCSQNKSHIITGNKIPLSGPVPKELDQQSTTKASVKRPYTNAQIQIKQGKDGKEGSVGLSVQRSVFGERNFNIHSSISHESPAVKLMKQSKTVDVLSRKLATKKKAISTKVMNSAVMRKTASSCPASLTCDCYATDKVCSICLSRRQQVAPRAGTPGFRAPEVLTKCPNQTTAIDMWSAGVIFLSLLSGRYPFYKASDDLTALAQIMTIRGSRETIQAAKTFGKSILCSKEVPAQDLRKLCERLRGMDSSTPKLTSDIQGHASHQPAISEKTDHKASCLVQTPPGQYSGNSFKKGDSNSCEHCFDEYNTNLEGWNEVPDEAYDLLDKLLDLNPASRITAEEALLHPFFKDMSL
Chain of Serine/threonine-protein kinase N3 (Q6P5Z2 whole entry): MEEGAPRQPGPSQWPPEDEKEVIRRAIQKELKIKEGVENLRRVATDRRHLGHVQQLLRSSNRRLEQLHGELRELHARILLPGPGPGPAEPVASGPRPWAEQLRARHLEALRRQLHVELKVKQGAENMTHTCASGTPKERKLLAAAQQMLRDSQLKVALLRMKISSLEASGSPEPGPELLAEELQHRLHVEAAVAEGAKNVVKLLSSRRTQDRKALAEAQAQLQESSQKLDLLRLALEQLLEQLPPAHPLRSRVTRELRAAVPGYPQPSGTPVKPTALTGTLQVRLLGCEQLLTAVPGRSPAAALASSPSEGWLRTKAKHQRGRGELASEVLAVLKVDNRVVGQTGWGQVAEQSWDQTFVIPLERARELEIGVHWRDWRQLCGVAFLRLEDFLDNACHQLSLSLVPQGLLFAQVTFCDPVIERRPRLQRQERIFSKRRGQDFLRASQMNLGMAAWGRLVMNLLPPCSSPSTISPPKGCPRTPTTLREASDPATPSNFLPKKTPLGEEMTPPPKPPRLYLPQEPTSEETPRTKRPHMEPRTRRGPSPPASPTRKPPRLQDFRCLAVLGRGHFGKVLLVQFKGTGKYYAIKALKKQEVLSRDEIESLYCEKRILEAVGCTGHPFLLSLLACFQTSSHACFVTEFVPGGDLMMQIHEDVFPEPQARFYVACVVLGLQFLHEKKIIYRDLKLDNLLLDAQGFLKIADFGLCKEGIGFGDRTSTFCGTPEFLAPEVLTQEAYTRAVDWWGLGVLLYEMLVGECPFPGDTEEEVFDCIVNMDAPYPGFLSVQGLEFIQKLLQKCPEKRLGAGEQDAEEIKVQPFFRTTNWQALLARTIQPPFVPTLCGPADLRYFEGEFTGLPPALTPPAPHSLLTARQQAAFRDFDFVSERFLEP
Chain of Dual specificity protein kinase CLK3 (P49761 whole entry, the tested form may be a part): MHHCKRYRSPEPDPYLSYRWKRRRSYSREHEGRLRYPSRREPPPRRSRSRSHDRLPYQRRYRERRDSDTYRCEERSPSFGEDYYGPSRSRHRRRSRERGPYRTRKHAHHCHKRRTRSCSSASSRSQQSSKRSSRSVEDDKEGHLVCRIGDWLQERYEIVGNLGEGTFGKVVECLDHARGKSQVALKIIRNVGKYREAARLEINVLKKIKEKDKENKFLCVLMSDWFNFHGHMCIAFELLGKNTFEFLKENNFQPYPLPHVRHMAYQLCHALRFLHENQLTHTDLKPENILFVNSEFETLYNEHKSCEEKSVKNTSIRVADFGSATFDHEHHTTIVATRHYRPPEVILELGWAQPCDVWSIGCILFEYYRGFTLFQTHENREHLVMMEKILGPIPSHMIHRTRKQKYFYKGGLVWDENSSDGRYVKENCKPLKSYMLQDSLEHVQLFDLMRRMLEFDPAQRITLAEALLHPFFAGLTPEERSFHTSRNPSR
Chain of Uncharacterized aarF domain-containing protein kinase 5 (Q3MIX3 whole entry, the tested form may be a part): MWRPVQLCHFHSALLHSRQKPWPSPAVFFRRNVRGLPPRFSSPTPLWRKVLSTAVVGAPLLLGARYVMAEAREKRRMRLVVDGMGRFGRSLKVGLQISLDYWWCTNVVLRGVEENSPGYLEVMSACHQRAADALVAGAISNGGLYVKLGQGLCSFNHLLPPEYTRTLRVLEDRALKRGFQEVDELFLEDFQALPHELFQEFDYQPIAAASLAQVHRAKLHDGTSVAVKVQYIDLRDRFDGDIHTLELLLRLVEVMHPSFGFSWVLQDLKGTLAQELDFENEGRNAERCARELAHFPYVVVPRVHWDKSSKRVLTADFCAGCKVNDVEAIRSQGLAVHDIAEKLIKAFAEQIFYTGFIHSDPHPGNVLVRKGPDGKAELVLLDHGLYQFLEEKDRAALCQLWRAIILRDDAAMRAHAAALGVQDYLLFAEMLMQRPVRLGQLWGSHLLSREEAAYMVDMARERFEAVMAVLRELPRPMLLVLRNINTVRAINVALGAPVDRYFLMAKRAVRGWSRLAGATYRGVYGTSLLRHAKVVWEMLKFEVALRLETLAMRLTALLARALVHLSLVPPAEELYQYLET

COc1cc2ncnc(Nc3ccc(F)c(Cl)c3)c2cc1NC(=O)/C=C/CN1CCCCC1 [DACOMITINIB ANHYDROUS]
inactive: [1] > 30 µM | [2] > 30 µM | [3] > 30 µM | UMP-CMP kinase > 30 µM | Focal adhesion kinase 1 > 30 µM | [4] > 30 µM

CN(c1ncccc1CNc1nc(Nc2ccc3c(c2)CC(=O)N3)ncc1C(F)(F)F)S(C)(=O)=O [PF-00562271]
inactive: [1] > 30 µM | [2] > 30 µM | UMP-CMP kinase > 30 µM | [5] > 30 µM | [6] > 30 µM

O[C@H]1CC[C@H](Nc2ncc3nc(Nc4c(F)cc(F)cc4F)n([C@H]4CCOC4)c3n2)CC1 [TANZISERTIB]
inactive: [2] > 30 µM | [5] > 30 µM | [7] > 30 µM | Focal adhesion kinase 1 > 30 µM | [6] > 30 µM | [4] > 30 µM | [8] > 30 µM

Cn1c(=O)n(-c2ccc(C(C)(C)C#N)cc2)c2c3cc(-c4cnc5ccccc5c4)ccc3ncc21 [DACTOLISIB]
inactive: [2] > 30 µM | UMP-CMP kinase > 30 µM | [5] > 30 µM | [7] > 30 µM | [6] > 30 µM | [4] > 30 µM | [8] > 30 µM

Cn1cnc2c(F)c(Nc3ccc(Br)cc3Cl)c(C(=O)NOCCO)cc21 [SELUMETINIB]
inactive: [3] > 30 µM | UMP-CMP kinase > 30 µM | [5] > 30 µM | [7] > 30 µM | [4] > 30 µM

O=S(=O)(c1cccc2cnccc12)N1CCCNCC1 [FASUDIL]
inactive: [1] > 30 µM | [2] > 30 µM | [3] > 30 µM | UMP-CMP kinase > 30 µM | [6] > 30 µM | [4] > 30 µM | [8] > 30 µM

COc1cc(F)c(F)c(Nc2ccc(I)cc2F)c1NS(=O)(=O)C1(C[C@H](O)CO)CC1 [REFAMETINIB]
inactive: [7] > 30 µM | Focal adhesion kinase 1 > 30 µM | [6] > 30 µM | [4] > 30 µM

COc1cc2c(Oc3ccc4[nH]c(C)cc4c3F)ncnc2cc1OCCCN1CCCC1 [CEDIRANIB]
inactive: [2] > 30 µM | [3] > 30 µM | UMP-CMP kinase > 30 µM | [5] > 30 µM | [7] > 30 µM

COc1cccc2cc(-c3nc([C@H]4CC[C@H](C(=O)O)CC4)n4ncnc(N)c34)[nH]c12 [OSI-027]
inactive: UMP-CMP kinase > 30 µM | [7] > 30 µM | Focal adhesion kinase 1 > 30 µM | [4] > 30 µM

Cc1ccc(C(=O)Nc2ccc(Oc3cc4cnn(C)c4cc3-c3cn[nH]c3)c(F)c2)c(=O)n1-c1ccc(F)cc1 [MERESTINIB]
inactive: [1] > 30 µM | [2] > 30 µM | [3] > 30 µM | UMP-CMP kinase > 30 µM | [5] > 30 µM | Focal adhesion kinase 1 > 30 µM | [6] > 30 µM | [4] > 30 µM | [8] > 30 µM

CNC(=O)c1cccc(-c2ccc3c(N4CCOC[C@@H]4C)nc(N4CCOC[C@@H]4C)nc3n2)c1 [VISTUSERTIB]
inactive: [1] > 30 µM | [2] > 30 µM | [3] > 30 µM | UMP-CMP kinase > 30 µM | [5] > 30 µM | Focal adhesion kinase 1 > 30 µM | [6] > 30 µM | [4] > 30 µM | [8] > 30 µM

C=CC(=O)Nc1cc(Nc2nccc(-c3cn(C)c4ccccc34)n2)c(OC)cc1N(C)CCN(C)C [OSIMERTINIB]
inactive: [1] > 30 µM | UMP-CMP kinase > 30 µM | [5] > 30 µM | Focal adhesion kinase 1 > 30 µM | [4] > 30 µM

COc1ccc2c(OCc3nnc4ccc(-c5ccccc5)nn34)ccnc2c1 [AMG-208]
inactive: [1] > 30 µM | [2] > 30 µM | UMP-CMP kinase > 30 µM | [5] > 30 µM | Focal adhesion kinase 1 > 30 µM | [6] > 30 µM | [4] > 30 µM

CC1(C)CNc2cc(NC(=O)c3cccnc3NCc3ccncc3)ccc21 [MOTESANIB]
inactive: [2] > 30 µM | [3] > 30 µM | UMP-CMP kinase > 30 µM | [7] > 30 µM

CN(C)C/C=C/C(=O)Nc1cc2c(Nc3ccc(F)c(Cl)c3)ncnc2cc1O[C@H]1CCOC1 [AFATINIB]
inactive: [2] > 30 µM | [3] > 30 µM | [5] > 30 µM | [7] > 30 µM | [4] > 30 µM

NC(=O)c1ccc(N(C(N)=O)c2c(F)cccc2F)nc1-c1ccc(F)cc1F [VX-702]
inactive: UMP-CMP kinase > 30 µM | [5] > 30 µM | [7] > 30 µM | Focal adhesion kinase 1 > 30 µM | [6] > 30 µM | [4] > 30 µM

C[C@@]1(C(=O)Nc2ccc(F)nc2)CCCN1c1nc(Nc2cc(C3CC3)n[nH]2)c2cccn2n1 [BMS-754807]
inactive: [7] > 30 µM | [4] > 30 µM

COc1cccc(Nc2ncnn3ccc(CN4CC[C@@H](N)[C@H](O)C4)c23)c1 [BMS-690514]
inactive: [7] > 30 µM | Focal adhesion kinase 1 > 30 µM | [6] > 30 µM | [8] > 30 µM

Cc1cc(-c2cc(OC(=O)c3ccccc3)ccc2Cl)cc2nnc(Nc3ccc(OCCN4CCCC4)cc3)nc12 [TG100-801]
inactive: [2] > 30 µM | [5] > 30 µM | [7] > 30 µM | Focal adhesion kinase 1 > 30 µM | [6] > 30 µM | [4] > 30 µM | [8] > 30 µM
